Laboratory results from the NIST ThermoML archive (doi:10.1016/j.jct.2011.01.010).
Numbers after ± are expanded uncertainties.

Assay: osmotic coefficient (dimensionless); mn = molality of the nth substance listed, in mol/kg
Conditions: 323.15 K, Liquid, vapor pressure osmometry

CC(C)O [propan-2-ol] + COS(=O)(=O)[O-].Cc1ccc[n+](C)c1
Conditions	osmotic coefficient
m1 = 0.072	0.969 ± 0.012
m1 = 0.1185	0.873 ± 0.013
m1 = 0.2149	0.767 ± 0.015
m1 = 0.3087	0.699 ± 0.016
m1 = 0.408	0.654 ± 0.017
m1 = 0.5005	0.628 ± 0.018
m1 = 0.7082	0.57 ± 0.019
m1 = 1.013	0.532 ± 0.02
m1 = 1.296	0.51 ± 0.021
m1 = 1.72	0.49 ± 0.022
m1 = 2.095	0.468 ± 0.022
m1 = 2.494	0.46 ± 0.023
m1 = 2.956	0.436 ± 0.023
m1 = 3.326	0.419 ± 0.024

CCCO [propan-1-ol] + COS(=O)(=O)[O-].Cc1ccc[n+](C)c1
Conditions	osmotic coefficient
m1 = 0.0785	0.885 ± 0.013
m1 = 0.0971	0.803 ± 0.015
m1 = 0.2088	0.711 ± 0.016
m1 = 0.3089	0.671 ± 0.017
m1 = 0.4144	0.658 ± 0.017
m1 = 0.5126	0.642 ± 0.017
m1 = 0.8126	0.609 ± 0.018
m1 = 1.104	0.576 ± 0.019
m1 = 1.401	0.548 ± 0.02
m1 = 1.691	0.533 ± 0.02
m1 = 2.219	0.508 ± 0.021
m1 = 2.721	0.494 ± 0.022
m1 = 3.211	0.478 ± 0.022

CCCCCO [pentan-1-ol] + COS(=O)(=O)[O-].Cc1ccc[n+](C)c1
Conditions	osmotic coefficient
m1 = 0.0303	0.77 ± 0.015
m1 = 0.0543	0.677 ± 0.017
m1 = 0.0875	0.618 ± 0.018
m1 = 0.1103	0.584 ± 0.019
m1 = 0.2153	0.505 ± 0.021
m1 = 0.3078	0.464 ± 0.022
m1 = 0.412	0.425 ± 0.024
m1 = 0.5092	0.401 ± 0.024
m1 = 0.8077	0.372 ± 0.025
m1 = 1.106	0.352 ± 0.026
m1 = 1.71	0.33 ± 0.027
m1 = 2.229	0.315 ± 0.027
m1 = 2.726	0.308 ± 0.027
m1 = 3.198	0.3 ± 0.028

CCCCO [butan-1-ol] + COS(=O)(=O)[O-].Cc1ccc[n+](C)c1
Conditions	osmotic coefficient
m1 = 0.0259	0.824 ± 0.014
m1 = 0.0466	0.746 ± 0.015
m1 = 0.1056	0.668 ± 0.017
m1 = 0.2078	0.601 ± 0.019
m1 = 0.3112	0.528 ± 0.021
m1 = 0.4005	0.501 ± 0.021
m1 = 0.5132	0.469 ± 0.022
m1 = 0.9858	0.425 ± 0.024
m1 = 1.282	0.406 ± 0.024
m1 = 1.685	0.394 ± 0.025
m1 = 2.078	0.387 ± 0.025
m1 = 2.497	0.375 ± 0.025
m1 = 2.911	0.368 ± 0.025

CCC(C)O (centres undefined) [butan-2-ol] + COS(=O)(=O)[O-].Cc1ccc[n+](C)c1
Conditions	osmotic coefficient
m1 = 0.0458	0.818 ± 0.014
m1 = 0.0728	0.729 ± 0.016
m1 = 0.0933	0.696 ± 0.016
m1 = 0.2019	0.605 ± 0.018
m1 = 0.3113	0.547 ± 0.02
m1 = 0.3991	0.512 ± 0.021
m1 = 0.4981	0.474 ± 0.022
m1 = 0.6846	0.441 ± 0.023
m1 = 0.9815	0.408 ± 0.024
m1 = 1.285	0.383 ± 0.025
m1 = 1.687	0.361 ± 0.026
m1 = 2.105	0.345 ± 0.026
m1 = 2.501	0.333 ± 0.026
m1 = 2.914	0.327 ± 0.027
m1 = 3.291	0.32 ± 0.027
